Data on four molecules can be found in US12281149B2, “Modulators of G-protein coupled receptors” (priority 2021, dated 2025).

*1 amine or outer side, *2 acyl side, *3 side chain or, on linkers, in order; H or OH if unused. Where a SMILES comes first, the peptide text is derived from it. Side-chain parts run from the residue outwards. [ ]: non-standard residue; d: D form. The star is where a group is joined. Isobutyryl(2-(3-CN-5-F-Ph)) = CC(C)(C(=O)*)c1cc(F)cc(C#N)c1; C20 diacid = O=C(O)CCCCCCCCCCCCCCCCCCC(=O)*; γGlu = O=C(O)[C@H](CCC(=O)[*:2])N[*:1]; X45 = CC(Cn1cc(Br)cn1)NCCC(=O)*; AEEA = NCCOCCOCC(=O)O; Aib = CC(C)(N)C(=O)O; βAla = NCCC(=O)O

What all share (type): cell-based
The target of assay [1] is T1, GLP-1 receptor (Homo sapiens, UniProt P43220). Nature of the assay: PathHunter β-arrestin assay, GLP-1 receptor. On the set-up: host or cells: PathHunter CHO-K1 GLP1R β-Arrestin Cell Line. The conditions noted are these: β-arrestin-2 recruitment, PathHunter CHO-K1 GLP1R β-Arrestin Cell Line, 90 min at 37° C.; normalized to GLP-1; read-out: GLP-1R β Arrestin EC50. (In general: Activated receptors often draw arrestin, which recruitment assays turn into a signal.)
T1 sequence (P43220 24-463): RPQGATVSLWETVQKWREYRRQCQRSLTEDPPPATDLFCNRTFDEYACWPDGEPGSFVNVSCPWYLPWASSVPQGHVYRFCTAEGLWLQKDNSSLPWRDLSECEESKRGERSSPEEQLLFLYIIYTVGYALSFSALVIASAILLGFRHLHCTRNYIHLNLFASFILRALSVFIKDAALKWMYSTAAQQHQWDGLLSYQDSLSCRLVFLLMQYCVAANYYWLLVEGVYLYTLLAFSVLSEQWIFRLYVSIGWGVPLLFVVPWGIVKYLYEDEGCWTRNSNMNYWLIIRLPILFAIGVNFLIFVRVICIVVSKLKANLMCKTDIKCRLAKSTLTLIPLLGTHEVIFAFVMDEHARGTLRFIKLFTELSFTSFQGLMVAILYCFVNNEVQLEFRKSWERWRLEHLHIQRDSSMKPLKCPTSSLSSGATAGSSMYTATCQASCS

Assay [2] deals with T2, GIP receptor (Homo sapiens, UniProt P48546).
T2 sequence (P48546 22-466): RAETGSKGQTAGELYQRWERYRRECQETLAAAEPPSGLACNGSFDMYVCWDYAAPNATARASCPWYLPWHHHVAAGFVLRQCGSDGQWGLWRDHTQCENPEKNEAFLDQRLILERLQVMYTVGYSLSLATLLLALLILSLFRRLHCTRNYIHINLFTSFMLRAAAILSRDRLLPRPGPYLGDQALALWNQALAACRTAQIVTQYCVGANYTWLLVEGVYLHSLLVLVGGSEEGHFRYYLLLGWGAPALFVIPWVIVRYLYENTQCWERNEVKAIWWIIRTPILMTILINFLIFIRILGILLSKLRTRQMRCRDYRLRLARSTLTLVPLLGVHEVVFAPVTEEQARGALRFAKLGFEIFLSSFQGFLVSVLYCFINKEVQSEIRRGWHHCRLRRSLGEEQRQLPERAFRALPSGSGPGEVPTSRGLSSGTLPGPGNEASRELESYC
Nature of the assay: PathHunter β-arrestin assay, GIP receptor. Details: host or cells: PathHunter CHO-K1 GIPR β-Arrestin Cell Line. The conditions noted are these: β-arrestin-2 recruitment, PathHunter CHO-K1 GIPR β-Arrestin Cell Line, 90 min at 37° C.; normalized to GIP; read-out: GIPR β Arrestin EC50.
Method: β-arrestin-2 recruitment for GLP-1 receptor or GIP receptor was measured using the DiscoverX PathHunter Detection Kit and PathHunter® CHO-K1 GLPIR β-Arrestin Cell Line or PathHunter® CHO-K1 GIPR β-Arrestin Cell Line, respectively). Briefly, cells were grown in Ham's F12 Nutrient Mix with 10% FBS and lifted with Cell dissociation buffer, Enzyme free, PBS based (ThermoFisher). Harvested cells were pelleted and resuspended in Assay Complete Cell Plating Reagent 2 and 5000 cells per well were plated in tissue culture treated 384-well small volume white assay plates. Plates were then incubated at 37° C. and 5% CO2 overnight. The media was then replaced with fresh Assay Complete Cell Plating Reagent 2. Cells were then treated with 10 nl compound in DMSO using an ECHO 550 acoustic dispenser (Labcyte) in a 20-point dose response format in duplicate for 90 min at 37° C. The assay was then completed according to the manufacturer's instructions. Luminescence was measured using a Perkin Elmer Envision plate reader. Raw data was normalized to the maximum signal from GLP-1 or GIP (high) and DMSO (low). Dose response curves were analyzed using GraphPad Prism 9.0.

Assay [3] addresses T2, GIP receptor. As to the kind of experiment: HitHunter cAMP assay, GIP receptor. To be noted: for EC50: CHO cells stably expressing GIP receptor, cAMP accumulation, 30 min, read-out: EC50 GIP-1R; for Emax: CHO cells, cAMP, normalized to maximum signal from GIP (high) and DMSO (low), read-out: Emax GIP-1R.
The target in assay [4] is T1, GLP-1 receptor. Nature of the assay: HitHunter cAMP assay, GLP-1 receptor. The conditions noted are these: for EC50: CHO cells stably expressing human GLP-1 receptor, cAMP accumulation, 30 min, read-out: EC50 GLP-1R; for Emax: CHO cells, cAMP, normalized to maximum signal from GLP-1 (high) and DMSO (low), read-out: Emax GLP-1R.

By EC50 is commonly meant the concentration needed to bring the measured effect to its halfway point. The term Emax denotes the maximal effect, on the per cent scale that the assay sets.

For `CC[C@H](C)[C@H](NC(=O)[C@H](CC(C)C)NC(=O)[C@H](Cc1c[nH]c2ccccc12)NC(=O)[C@H](CCC(N)=O)NC(=O)[C@@H](NC(=O)[C@H](Cc1ccccc1)NC(=O)[C@H](C)NC(=O)[C@H](CCCCNC(=O)COCCOCCNC(=O)COCCOCCNC(=O)CC[C@H](NC(=O)CCCCCCCCCCCCCCCCCCC(=O)O)C(=O)O)NC(=O)[C@H](CCC(N)=O)NC(=O)[C@H](C)NC(=O)[C@@H](NC(=O)[C@H](CCCCN)NC(=O)[C@H](CC(=O)O)NC(=O)[C@H](CC(C)C)NC(=O)C(C)(C)NC(=O)[C@@H](NC(=O)[C@H](CO)NC(=O)[C@H](Cc1ccc(O)cc1)NC(=O)[C@H](CC(=O)O)NC(=O)[C@H](CO)NC(=O)[C@@H](NC(=O)[C@H](Cc1ccccc1)NC(=O)[C@@H](NC(=O)CNC(=O)[C@H](CCC(=O)O)NC(=O)CCNC(C)Cn1cc(Br)cn1)[C@@H](C)O)[C@@H](C)O)[C@@H](C)CC)[C@@H](C)CC)C(C)C)C(=O)N[C@@H](C)C(=O)NCC(=O)NCC(=O)N1CCC[C@H]1C(=O)N[C@@H](CO)C(=O)N[C@@H](CO)C(=O)NCC(=O)N[C@@H](C)C(=O)N1CCC[C@H]1C(=O)N1CCC[C@H]1C(=O)N1CCC[C@H]1C(=O)N[C@@H](CO)C(N)=O` (stereo partly drawn) [Compound 274] (X45-EGTFTSDYSI[Aib]LDKIAQK([AEEA-AEEA-γGlu-C20 diacid])AFVQWLIAGGPSSGAPPPS-NH2), the concentration for a half-maximal effect (EC50) on GLP-1 receptor [1] was more than 1000 nM; at GIP receptor [2], more than 1000 nM; on GIP receptor [3], 100 to 1000 nM; on GLP-1 receptor [4], 10 to 100 nM. In addition, the Emax at GIP receptor [3] amounted to 36%; at GLP-1 receptor [4] it was 88%.

Regarding `CC[C@H](C)[C@H](NC(=O)[C@H](CC(C)C)NC(=O)[C@H](Cc1c[nH]c2ccccc12)NC(=O)[C@H](CCC(N)=O)NC(=O)[C@@H](NC(=O)[C@H](Cc1ccccc1)NC(=O)[C@H](C)NC(=O)[C@H](CCCCNC(=O)COCCOCCNC(=O)COCCOCCNC(=O)CC[C@H](NC(=O)CCCCCCCCCCCCCCCCCCC(=O)O)C(=O)O)NC(=O)[C@H](CCC(N)=O)NC(=O)[C@H](C)NC(=O)[C@@H](NC(=O)[C@H](CCCCN)NC(=O)[C@H](CC(=O)O)NC(=O)[C@H](CC(C)C)NC(=O)C(C)(C)NC(=O)[C@@H](NC(=O)[C@H](CO)NC(=O)[C@H](Cc1ccc(O)cc1)NC(=O)[C@H](CC(=O)O)NC(=O)[C@H](CO)NC(=O)[C@@H](NC(=O)[C@H](Cc1ccccc1)NC(=O)[C@@H](NC(=O)CNC(=O)CC[C@H](NC(=O)CCNC(=O)C(C)(C)c1cc(F)cc(C#N)c1)C(=O)O)[C@@H](C)O)[C@@H](C)O)[C@@H](C)CC)[C@@H](C)CC)C(C)C)C(=O)N[C@@H](C)C(=O)NCC(=O)NCC(=O)N1CCC[C@H]1C(=O)N[C@@H](CO)C(=O)N[C@@H](CO)C(=O)NCC(=O)N[C@@H](C)C(=O)N1CCC[C@H]1C(=O)N1CCC[C@H]1C(=O)N1CCC[C@H]1C(=O)N[C@@H](CO)C(N)=O` [Compound 110] ({Isobutyryl(2-(3-CN-5-F-Ph))-βAla-γGlu}-GTFTSDYSI[Aib]LDKIAQK([AEEA-AEEA-γGlu-C20 diacid])AFVQWLIAGGPSSGAPPPS-NH2), the half-maximal effective concentration (EC50) was more than 1000 nM at GLP-1 receptor [1], more than 1000 nM on GIP receptor [2], 100 to 1000 nM at GIP receptor [3] and 100 to 1000 nM on GLP-1 receptor [4]. For the same molecule, the Emax is 32% on GIP receptor [3] and 31% at GLP-1 receptor [4].

As to `CC[C@H](C)[C@H](NC(=O)[C@H](CC(C)C)NC(=O)[C@H](Cc1c[nH]c2ccccc12)NC(=O)[C@H](CCC(N)=O)NC(=O)[C@@H](NC(=O)[C@H](Cc1ccccc1)NC(=O)[C@H](C)NC(=O)[C@H](CCCCNC(=O)COCCOCCNC(=O)COCCOCCNC(=O)CC[C@H](NC(=O)CCCCCCCCCCCCCCCCCCC(=O)O)C(=O)O)NC(=O)[C@H](CCC(N)=O)NC(=O)[C@H](C)NC(=O)[C@H](CCC(N)=O)NC(=O)[C@H](CCCCN)NC(=O)[C@H](CC(=O)O)NC(=O)[C@H](CC(C)C)NC(=O)C(C)(C)NC(=O)[C@@H](NC(=O)[C@H](CO)NC(=O)[C@H](Cc1ccc(O)cc1)NC(=O)[C@H](CC(=O)O)NC(=O)[C@H](CO)NC(=O)[C@@H](NC(=O)[C@H](Cc1ccccc1)NC(=O)[C@@H](NC(=O)CNC(=O)[C@H](CCC(=O)O)NC(=O)CCNC(=O)C(C)(C)c1cc(F)cc(C#N)c1)[C@@H](C)O)[C@@H](C)O)[C@@H](C)CC)C(C)C)C(=O)N[C@@H](C)C(=O)NCC(=O)NCC(=O)N1CCC[C@H]1C(=O)N[C@@H](CO)C(=O)N[C@@H](CO)C(=O)NCC(=O)N[C@@H](C)C(=O)N1CCC[C@H]1C(=O)N1CCC[C@H]1C(=O)N1CCC[C@H]1C(=O)N[C@@H](CO)C(N)=O` [Compound 186] ({Isobutyryl(2-(3-CN-5-F-Ph))-βAla}-EGTFTSDYSI[Aib]LDKQAQK([AEEA-AEEA-γGlu-C20 diacid])AFVQWLIAGGPSSGAPPPS-NH2), the EC50 on GLP-1 receptor [1] is more than 1000 nM; on GIP receptor [2] it was more than 1000 nM; at GIP receptor [3], 10 to 100 nM; at GLP-1 receptor [4] it was 0.1 to 1 nM. Further, the values for the Emax on GIP receptor [3] and at GLP-1 receptor [4] were 100% and 99%, respectively.

With `CC[C@H](C)[C@H](NC(=O)[C@H](CO)NC(=O)[C@H](Cc1ccc(O)cc1)NC(=O)[C@H](CC(=O)O)NC(=O)[C@H](CO)NC(=O)[C@@H](NC(=O)[C@H](Cc1ccccc1)NC(=O)[C@@H](NC(=O)CNC(=O)[C@H](CCC(=O)O)NC(=O)CCNC(=O)C(C)(C)c1cc(F)cc(C#N)c1)[C@@H](C)O)[C@@H](C)O)C(=O)N[C@@H](Cc1ccc(O)cc1)C(=O)N[C@@H](CC(C)C)C(=O)N[C@@H](CC(=O)O)C(=O)N[C@@H](CCCCN)C(=O)N[C@@H](CCCCNC(=O)COCCOCCNC(=O)COCCOCCNC(=O)CC[C@H](NC(=O)CCCCCCCCCCCCCCCCCCC(=O)O)C(=O)O)C(=O)N[C@@H](C)C(=O)N[C@@H](C)C(=O)NC(C)(C)C(=O)N[C@@H](CCC(=O)O)C(=O)N[C@@H](Cc1ccccc1)C(=O)N[C@H](C(=O)N[C@@H](CC(N)=O)C(=O)N[C@@H](Cc1c[nH]c2ccccc12)C(=O)N[C@@H](CC(C)C)C(=O)N[C@@H](CC(C)C)C(=O)N[C@@H](C)C(=O)NCC(=O)NCC(=O)N1CCC[C@H]1C(=O)N[C@@H](CO)C(=O)N[C@@H](CO)C(=O)NCC(=O)N[C@@H](C)C(=O)N1CCC[C@H]1C(=O)N1CCC[C@H]1C(=O)N1CCC[C@H]1C(=O)N[C@@H](CO)C(N)=O)C(C)C` [Compound 114] ({Isobutyryl(2-(3-CN-5-F-Ph))-βAla}-EGTFTSDYSIYLDKK([AEEA-AEEA-γGlu-C20 diacid])AA[Aib]EFVNWLLAGGPSSGAPPPS-NH2), the EC50 at GLP-1 receptor [1] is more than 1000 nM; at GIP receptor [2] it was more than 1000 nM; on GIP receptor [3], 10 to 100 nM; on GLP-1 receptor [4], 0.1 to 1 nM. In addition, the maximal response (Emax) amounted to 95% at GIP receptor [3] and 114% on GLP-1 receptor [4].
